Patent publication EP2140864A2 (H. Lundbeck A/S, priority 2001, dated 2002)
pKi: −log10 of the molar value. Where two headings read alike, the source gives them in different places.

Assays:
[1] = molecular target: T1, human α2A adrenoceptor (Homo sapiens, UniProt P08913); experiment: Radioligand binding, α2A adrenergic receptor
T1 construct: expressed in transfected cells
T1 sequence (P08913 1-465): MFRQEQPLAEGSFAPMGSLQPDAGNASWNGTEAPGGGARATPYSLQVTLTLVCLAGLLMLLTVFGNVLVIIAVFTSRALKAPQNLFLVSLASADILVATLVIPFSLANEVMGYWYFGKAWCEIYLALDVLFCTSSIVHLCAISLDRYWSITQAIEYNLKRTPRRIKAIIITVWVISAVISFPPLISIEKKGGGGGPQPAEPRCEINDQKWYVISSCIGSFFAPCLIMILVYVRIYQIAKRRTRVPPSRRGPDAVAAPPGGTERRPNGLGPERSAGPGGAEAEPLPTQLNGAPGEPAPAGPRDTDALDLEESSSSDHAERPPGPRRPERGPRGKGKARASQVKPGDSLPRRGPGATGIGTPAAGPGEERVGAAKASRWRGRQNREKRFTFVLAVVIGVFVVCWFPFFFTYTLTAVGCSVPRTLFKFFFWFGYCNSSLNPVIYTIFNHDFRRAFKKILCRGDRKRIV
From the text: Other receptors: Cell membranes expressing human dopamine D1, D2, D4 and rat D3 receptors were purchased through BioSignal, Inc. (Montreal, Canada). Binding assays using the histamine H1 receptor; dopamine receptors; and α1A, α1E, and α2 adrenergic receptors may be carried out according to the procedures described in U.S. Patent No. 5,780,485, the disclosure of which is hereby incorporated by reference in its entirety into this application. Binding assays using the dopamine D5 receptor may be carried out according to the procedures described in U.S. Patent No. 5,882,855, the disclosure of which is hereby incorporated by reference in its entirety into this application. Binding assays for the human α1D adrenergic receptor may be carried out according to the procedures described in U.S. Patent No. 6,156,518, the disclosure of which is hereby incorporated by reference in its entirety into this application.
(§1) Binding data were analyzed using nonlinear regression and statistical techniques available in the GraphPAD Prism package (San Diego, CA). Enzymatic assay data were derived from a standard curve of reference compound data.

[2] = molecular target: T2, human 5HT4 receptor (Homo sapiens, UniProt Q13639); experiment: Radioligand binding, 5-HT4 receptor
T2 construct: expressed in transfected cells
T2 sequence (Q13639 whole entry): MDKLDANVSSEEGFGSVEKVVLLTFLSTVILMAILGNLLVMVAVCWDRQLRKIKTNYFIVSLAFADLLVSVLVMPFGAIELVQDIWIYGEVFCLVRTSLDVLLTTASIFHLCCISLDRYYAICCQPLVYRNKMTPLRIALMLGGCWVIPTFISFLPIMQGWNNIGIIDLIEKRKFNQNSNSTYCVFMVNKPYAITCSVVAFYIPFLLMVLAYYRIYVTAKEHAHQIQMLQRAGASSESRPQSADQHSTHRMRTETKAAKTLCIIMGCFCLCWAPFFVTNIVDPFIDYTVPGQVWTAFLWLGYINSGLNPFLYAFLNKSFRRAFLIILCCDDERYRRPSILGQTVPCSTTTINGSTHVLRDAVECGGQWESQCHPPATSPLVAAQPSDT
Protocol: Other 5-HT Receptors: Other serotonin receptor binding assays were performed according to published methods: rat 5HT2C receptor (Julius et al., 1988); and 5-HT6 (Monsma, et al., 1993). The binding assays using the 5-HT4 receptor were performed according to the procedures described in U.S. Patent No. 5,766,879, the disclosure of which is hereby incorporated by reference in its entirety into this application.
as §1

[3] = molecular target: T3, human GAL3 receptor (Homo sapiens, UniProt O60755); experiment: Radioligand binding at cloned human GAL3 receptor
T3 construct: expressed in transfected cells
T3 sequence (O60755 1-368): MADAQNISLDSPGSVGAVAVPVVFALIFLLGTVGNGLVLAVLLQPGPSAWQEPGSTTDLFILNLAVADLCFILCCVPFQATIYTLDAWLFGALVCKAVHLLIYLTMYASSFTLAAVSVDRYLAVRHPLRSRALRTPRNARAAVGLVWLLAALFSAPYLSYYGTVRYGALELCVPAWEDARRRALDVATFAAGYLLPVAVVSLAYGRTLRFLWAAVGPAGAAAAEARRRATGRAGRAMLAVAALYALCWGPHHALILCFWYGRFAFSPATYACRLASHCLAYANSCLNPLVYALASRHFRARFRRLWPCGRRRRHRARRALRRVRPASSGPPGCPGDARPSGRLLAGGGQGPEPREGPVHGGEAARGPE
Summary of the method: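 Membranes from LM(tk-) cells stably expressing human GAL3, prepared in binding buffer (HEPES-based, pH 7.4), used for radioligand binding. Solvent at final assay concentration: 3% DMSO for indolones, 1% ethanol/0.09% pluronic F-127 for pyrimidines. Binding data analysed by nonlinear regression.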

[4] = Table 10; Ki hα2A divided by Ki hGAL3
[5] = Table 8; Ki h5HT4 divided by Ki hGAL3
[6] = pyrimidines, cloned human receptor, read-out: Ki GalR3
[7] = indolones, cloned human receptor, read-out: Ki GalR3

Structure (SMILES) | pKi ([1]; Table 9; read-out: hα2A Ki) | selectivity ratio hα2A [1, 4] | pKi ([2]; Table 7; read-out: h5HT4 Ki) | selectivity ratio h5HT4 [2, 5] | pKi ([3]; Table 7, read-out: hGAL3 Ki) | pKi ([3]; Table 9, read-out: hGAL3 Ki) | pKi [3, 6] | GAL1/GAL3 Ki ratio ([3]; Ki at GAL1 divided by Ki at human GAL3) | pKi ([1]; read-out: hα2A Ki; Table 9) | pKi ([2]; read-out: h5HT4 Ki; Table 7) | pKi ([3]; read-out: Ki GalR3, pyrimidines, cloned human receptor) | pKi ([3]; read-out: hGAL3 Ki, Table 7) | pKi ([3]; read-out: hGAL3 Ki, Table 9) | pKi [3, 7]
Cc1ccc(Nc2cc(N3CCCCC3)nc(N(C)CCc3c[nH]c4ccccc34)n2)cc1 [Example 11] | 5.74 | 20 | 5.88 | 14 | 7.04 | 7.04 | 7.04 |  |  |  |  |  |  | 
CN(CCc1c[nH]c2ccccc12)c1nc(Nc2ccc(F)c(F)c2)cc(N2CCCCC2)n1 [Example 15] | 4.84 | >100 | 5.64 | >30 | 7.14 | 7.14 | 7.14 |  |  |  |  |  |  | 
COc1cccc(Nc2cc(N3CCCCC3)nc(N(C)CCc3c[nH]c4ccccc34)n2)c1 [Example 17] | 5.45 | >30 | 5.58 | 30 | 7.06 | 7.06 | 7.06 |  |  |  |  |  |  | 
Cc1ccc(Nc2cc(N3CCCCC3)nc(N(C)CCc3ccccc3)n2)cc1 [Example 22] | 6.04 | >30 | 5.61 | >30 | 7.55 | 7.55 | 7.55 |  |  |  |  |  |  | 
Cc1ccc(Nc2cc(N3CCCCC3)nc(N3CCN(c4ncccc4C(F)(F)F)CC3)n2)cc1 [Example 34] | 5.43 | >100 | 4.68 | >100 | 7.64 | 7.64 | 7.64 | 39 |  |  |  |  |  | 
COC[C@@H]1[C@@H](c2ccccc2)OCCN1c1nc(Nc2ccc(C)cc2)cc(N2CCCCC2)n1 [Example 49] |  | 22 |  | >30 |  |  |  |  | 5.33 | 4.88 | 6.68 | 6.68 | 6.68 | 
CN(C)c1cc(Nc2ccc(Cl)c(Cl)c2)nc(Nc2ccccc2)n1 [Example 60] | 4.97 | >100 | 5.93 | 14 | 7.07 | 7.07 | 7.07 |  |  |  |  |  |  | 
Cc1ccc(Nc2cc(N(C)C)nc(N(C)CCc3c[nH]c4ccccc34)n2)cc1 [Example 77] | 6.50 | 4 | 5.88 | 17 | 7.10 | 7.10 | 7.10 |  |  |  |  |  |  | 
O=C1C(=Nc2cccc(C(F)(F)F)c2)c2ccccc2N1c1ccccc1 [Example 92, 1-PHENYL-3- [[3-(TRIFLUOROMETHYL)PHENYL]IMINO]-1,3-DIHYDRO-2H-INDOL-2-ONE] |  | >100 |  | 2 |  |  |  |  |  |  |  |  |  | 
O=C1C(=Nc2cccc(Cl)c2)c2ccccc2N1c1ccccc1 [Example 94, 3-[(3-CHLOROPHENYL)IMINO]-1-PHENYL-1,3-DIHYDRO-2H-INDOL-2-ONE] | 4.90 | >100 | 5.39 | >30 | 7.31 | 7.31 |  |  |  |  |  |  |  | 7.31
O=C1C(=Nc2ccc(C(F)(F)F)cc2)c2ccccc2N1c1ccccc1 [Example 95, 1-PHENYL-3-[[4-(TRIFLUOROMETHYL)PHENYL]IMINO]-1,3-DIHYDRO-2H-INDOL-2-ONE] | 4.52 | >100 | 5.52 | >100 | 7.54 | 7.54 |  |  |  |  |  |  |  | 7.54
O=C1C(=Nc2ccc(Cl)cc2)c2ccccc2N1c1ccccc1 [Example 97, 3-[(4-CHLOROPHENYL)IMINO]-1-PHENYL-1,3-DIHYDRO-2H-INDOL-2-ONE] | 4.87 | >100 | 5.59 | >30 | 7.29 | 7.29 |  |  |  |  |  |  |  | 7.29
O=C1C(=Nc2ccc(Br)cc2)c2ccccc2N1c1ccccc1 [Example 98, 3-[(4-BROMOPHENYL)IMINO]-1-PHENYL-1,3-DIHYDRO-2H-INDOL-2-ONE] | 4.63 | >100 | 5.92 | >30 | 7.42 | 7.42 |  |  |  |  |  |  |  | 7.42
O=C1C(=Nc2cc(Cl)cc(Cl)c2)c2ccccc2N1c1ccccc1 [Example 103, 3-[(3,5-DICHLOROPHENYL)IMINO]-1-PHENYL-1,3-DIHYDRO-2H-INDOL-2-ONE] |  |  |  |  |  |  |  |  |  |  |  |  |  | 7.17
